# Results: ChEMBL document CHEMBL1143013, “4-aryl-5-(4-piperidyl)-3-isoxazolol GABAA antagonists: synthesis, pharmacology, and structure-activity relationships” (J Med Chem, 2007)
# Activity calls are given as the source filed them. No cut-off for these calls is given here.
# Assays:
# [1] = molecular target: T1, GABA-A receptor; alpha-1/beta-3/gamma-2 (Homo sapiens, UniProt P14867+P18507+P28472); assay: Antagonist activity at human GABAA alpha-1-beta-3-gamma-2S expressed in Xenopus oocytes by two-electrode voltage-clamp electrophysiology; assay type: functional, cell-based, Oocyte
# T1 sequence (P14867 whole entry): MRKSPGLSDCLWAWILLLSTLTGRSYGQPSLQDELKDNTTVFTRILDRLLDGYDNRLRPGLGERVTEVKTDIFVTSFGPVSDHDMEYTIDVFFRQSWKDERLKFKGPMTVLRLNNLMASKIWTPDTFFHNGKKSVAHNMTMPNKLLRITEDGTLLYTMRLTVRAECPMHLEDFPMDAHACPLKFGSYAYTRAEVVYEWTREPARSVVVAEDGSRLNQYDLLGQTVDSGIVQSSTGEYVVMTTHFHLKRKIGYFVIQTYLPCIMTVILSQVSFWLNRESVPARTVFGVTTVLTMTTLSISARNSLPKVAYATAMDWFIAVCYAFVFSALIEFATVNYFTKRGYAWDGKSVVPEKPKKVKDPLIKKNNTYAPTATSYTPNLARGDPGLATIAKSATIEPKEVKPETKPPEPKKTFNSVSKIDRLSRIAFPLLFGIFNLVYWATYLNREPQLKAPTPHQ
# T1 sequence (P18507 whole entry): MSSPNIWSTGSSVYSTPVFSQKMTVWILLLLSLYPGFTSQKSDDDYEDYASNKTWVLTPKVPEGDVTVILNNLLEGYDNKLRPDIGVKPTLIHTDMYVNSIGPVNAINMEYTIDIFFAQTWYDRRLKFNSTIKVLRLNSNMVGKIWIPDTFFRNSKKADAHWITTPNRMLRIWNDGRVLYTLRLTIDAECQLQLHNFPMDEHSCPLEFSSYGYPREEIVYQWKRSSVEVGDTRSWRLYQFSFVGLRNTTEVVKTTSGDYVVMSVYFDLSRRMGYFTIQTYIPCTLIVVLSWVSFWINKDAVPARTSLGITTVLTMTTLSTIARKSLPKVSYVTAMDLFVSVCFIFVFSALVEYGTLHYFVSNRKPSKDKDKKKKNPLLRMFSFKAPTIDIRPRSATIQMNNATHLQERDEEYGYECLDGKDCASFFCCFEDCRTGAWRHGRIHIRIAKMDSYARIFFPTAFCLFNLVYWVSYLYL
# T1 sequence (P28472 whole entry): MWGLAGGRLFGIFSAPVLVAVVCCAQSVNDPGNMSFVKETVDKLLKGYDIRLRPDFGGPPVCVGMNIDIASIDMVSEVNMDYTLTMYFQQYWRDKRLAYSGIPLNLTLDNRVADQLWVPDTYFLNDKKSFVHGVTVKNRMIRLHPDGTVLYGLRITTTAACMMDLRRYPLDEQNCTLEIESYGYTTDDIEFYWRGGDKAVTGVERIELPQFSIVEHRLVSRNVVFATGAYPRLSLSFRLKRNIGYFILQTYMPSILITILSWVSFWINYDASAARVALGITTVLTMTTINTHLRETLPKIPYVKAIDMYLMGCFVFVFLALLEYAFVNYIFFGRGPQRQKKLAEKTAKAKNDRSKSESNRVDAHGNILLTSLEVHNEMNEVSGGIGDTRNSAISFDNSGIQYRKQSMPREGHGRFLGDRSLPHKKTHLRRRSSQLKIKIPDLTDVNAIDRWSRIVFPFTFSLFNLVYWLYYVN
# [2] = Displacement of [3H]muscimol from GABAA receptor in Sprague-Dawley rat brain synaptic membrane
# [3] = organism: Rattus norvegicus; assay: Displacement of [3H]GABA from GABAB receptor in Sprague-Dawley rat brain synaptic membrane at 100 uM
Ki ([1]; read-out: Ki) [nM],Ki [2] [nM],Log Ki [2],Activity [3],Ki ([1]; read-out: Log Ki (converted)) [nM],SMILES
76,317,-6.5,inactive,–,Br.Oc1noc(C2CCNCC2)c1-c1ccsc1
427,955,-6.02,inactive,479,Br.Oc1noc(C2CCNCC2)c1-c1cccnc1
59,84,-7.07,inactive,–,Br.Br.Nc1cccc(-c2c(O)noc2C2CCNCC2)c1
138,234,-6.63,inactive,–,Br.O=[N+]([O-])c1cccc(-c2c(O)noc2C2CCNCC2)c1
9,25,-7.61,inactive,–,Br.Oc1noc(C2CCNCC2)c1-c1csc(-c2ccccc2)c1
68,77,-7.11,inactive,–,Br.Oc1noc(C2CCNCC2)c1-c1cc(Cl)cc(Cl)c1
–,820,–,inactive,–,Oc1noc(C2CCNCC2)c1-c1cccc2ccccc12
–,49,–,inactive,–,Oc1noc(C2CCNCC2)c1Cc1ccc2ccccc2c1
198,21,–,inactive,–,Oc1noc(C2CCNCC2)c1Cc1ccc2ccccc2c1-c1ccccc1
129,851,-6.07,inactive,–,Br.Oc1noc(C2CCNCC2)c1-c1ccccc1Cl
8,70,-7.15,inactive,–,Br.Oc1noc(C2CCNCC2)c1-c1ccc(Oc2ccccc2)cc1
159,220,–,inactive,–,Oc1noc(C2CCNCC2)c1-c1ccccc1
71,195,-6.71,inactive,–,Br.Oc1noc(C2CCNCC2)c1-c1ccc(-c2ccccc2)cc1
10,10,-8,inactive,–,Br.Oc1noc(C2CCNCC2)c1-c1cccc(-c2ccccc2)c1
141,36,–,inactive,–,Oc1noc(C2CCNCC2)c1-c1ccc2ccccc2c1
334,–,–,–,–,O=c1[nH]oc(C2CCNCC2)c1-c1cccc2ccccc12
204,2420,-5.62,inactive,–,Br.Oc1noc(C2CCNCC2)c1-c1ccc(Cl)cc1
48,58,-7.24,inactive,–,Br.Oc1noc(C2CCNCC2)c1-c1cccc(Cl)c1
257,6980,-5.16,inactive,–,Br.CC(C)(C)c1ccc(-c2c(O)noc2C2CCNCC2)cc1

SMILES,Ki ([1]; read-out: Ki) [nM],Ki [2] [nM],Log Ki [2],Activity [3],Ki ([1]; read-out: Log Ki (converted)) [nM]
Oc1cc(C2CCNCC2)on1,–,–,–,inactive,–
